The source of these data is US10858352B2, “Pharmaceutical compounds” (Heptares Therapeutics Limited, priority 2018, dated 2020).

Like-named read-outs stand apart in the source and are kept apart here. A value given as a limit tells only on which side of the number the result lay.

Holding throughout (type): cell-based
The target of test [1] is T1, human muscarinic M3 receptor (Homo sapiens, UniProt P20309).
T1 construct: expressed in transfected cells
The test is described as follows: Alphascreen Surefire phospho-ERK1/2 functional assay, M3. The note with it: for Emax: CHO. The procedure:
(§1) ERK1/2 phosphorylation is a downstream consequence of both Gq/11 and Gi/o protein coupled receptor activation, making it highly suitable for the assessment of M1, M3 (Gq/11 coupled) and M2, M4 receptors (Gi/o coupled), rather than using different assay formats for different receptor subtypes. CHO cells stably expressing the human muscarinic M1, M2, M3 or M4 receptor were plated (25K/well) onto 96-well tissue culture plates in MEM-alpha+10% dialysed FBS. Once adhered, cells were serum-starved overnight. Agonist stimulation was performed by the addition of 5 μL agonist to the cells for 5 min (37° C.). Media was removed and 50 μL of lysis buffer added. After 15 min, a 4 μL sample was transferred to 384-well plate and 7 μL of detection mixture added. […]

For test [2], the target named is T2, human muscarinic M4 receptor (Homo sapiens, UniProt P08173).
T2 construct: expressed in transfected cells
T2 sequence (P08173 1-479): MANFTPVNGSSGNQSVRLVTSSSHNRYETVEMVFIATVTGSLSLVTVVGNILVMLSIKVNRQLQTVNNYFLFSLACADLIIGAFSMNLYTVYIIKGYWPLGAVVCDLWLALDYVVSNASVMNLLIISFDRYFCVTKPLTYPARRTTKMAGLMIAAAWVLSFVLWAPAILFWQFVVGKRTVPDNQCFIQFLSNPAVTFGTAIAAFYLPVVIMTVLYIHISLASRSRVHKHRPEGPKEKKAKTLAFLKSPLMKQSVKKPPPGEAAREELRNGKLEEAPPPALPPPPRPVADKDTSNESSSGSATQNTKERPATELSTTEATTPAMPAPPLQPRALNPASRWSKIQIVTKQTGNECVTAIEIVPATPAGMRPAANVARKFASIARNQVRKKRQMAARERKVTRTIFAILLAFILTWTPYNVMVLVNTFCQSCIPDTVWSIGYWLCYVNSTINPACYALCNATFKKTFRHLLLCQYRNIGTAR
Description: Alphascreen Surefire phospho-ERK1/2 functional assay, M4. The note with it: for EC50 / % Emax cf. ACh (M4): CHO cells stably expressing human M4; for EC50: agonist 5 min, 37° C., read-out: pEC50 M4 (converted); for Emax: CHO, read-out: % Emax cf. ACh (M4), CHO cells stably expressing human M4; for Emax / % Emax cf. ACh (M4): Emax relative to ACh. Here is the method:
as §1

Test [3] concerns the target T3, human muscarinic M2 receptor (Homo sapiens, UniProt P08172).
T3 sequence (P08172 1-466): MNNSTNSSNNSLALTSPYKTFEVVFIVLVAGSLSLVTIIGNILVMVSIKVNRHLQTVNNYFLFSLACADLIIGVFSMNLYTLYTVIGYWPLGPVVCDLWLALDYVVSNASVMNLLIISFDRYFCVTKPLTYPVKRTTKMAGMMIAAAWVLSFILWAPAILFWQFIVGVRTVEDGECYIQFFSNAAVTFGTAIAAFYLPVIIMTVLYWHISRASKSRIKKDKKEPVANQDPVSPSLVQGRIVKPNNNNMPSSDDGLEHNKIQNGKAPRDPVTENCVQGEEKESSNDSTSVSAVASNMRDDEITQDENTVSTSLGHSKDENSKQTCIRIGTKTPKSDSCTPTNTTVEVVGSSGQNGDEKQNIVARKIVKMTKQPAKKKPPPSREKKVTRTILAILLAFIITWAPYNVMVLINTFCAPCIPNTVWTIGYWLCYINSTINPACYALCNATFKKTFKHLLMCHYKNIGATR
Description: Alphascreen Surefire phospho-ERK1/2 functional assay, M2. The note with it: for Emax: CHO. The procedure:
as §1

In test [4] the target is T4, human muscarinic M1 receptor (Homo sapiens, UniProt P11229).
T4 sequence (P11229 1-460): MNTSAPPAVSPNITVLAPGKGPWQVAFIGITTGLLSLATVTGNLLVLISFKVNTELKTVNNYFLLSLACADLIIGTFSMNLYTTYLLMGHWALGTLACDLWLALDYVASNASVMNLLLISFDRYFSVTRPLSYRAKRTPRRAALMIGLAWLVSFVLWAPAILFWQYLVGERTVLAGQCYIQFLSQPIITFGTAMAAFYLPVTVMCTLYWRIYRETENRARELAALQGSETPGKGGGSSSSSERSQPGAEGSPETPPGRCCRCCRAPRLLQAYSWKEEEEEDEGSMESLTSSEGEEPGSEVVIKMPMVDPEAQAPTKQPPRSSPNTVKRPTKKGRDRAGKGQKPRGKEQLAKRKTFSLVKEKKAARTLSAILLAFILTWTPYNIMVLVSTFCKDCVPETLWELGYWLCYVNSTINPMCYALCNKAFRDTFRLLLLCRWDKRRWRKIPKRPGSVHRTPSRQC
Description: Alphascreen Surefire phospho-ERK1/2 functional assay, M1. The note with it: for EC50: agonist 5 min, 37° C.; for Emax: CHO, read-out: % Emax cf. ACh (M1), CHO cells stably expressing human M1; for Emax / % Emax cf. ACh (M1): Emax relative to ACh. Here is the method:
as §1

The mark [5] stands for this setting: CHO cells stably expressing human M3, agonist 5 min, 37° C., read-out: pEC50 M3 (converted).
The mark [6] stands for this setting: CHO cells stably expressing human M2, agonist 5 min, 37° C., read-out: pEC50 M2 (converted).
The mark [7] stands for this setting: CHO cells stably expressing human M1, read-out: pEC50 M1 (converted).
The mark [8] stands for this setting: read-out: % Emax cf. ACh (M3), CHO cells stably expressing human M3, Emax relative to ACh.
Setting [9] is: read-out: % Emax cf. ACh (M2), CHO cells stably expressing human M2, Emax relative to ACh.
[10] abbreviates: CHO cells stably expressing human M1.
Setting [11] is: pEC50 M1, CHO cells stably expressing human M1.

T1 sequence (P20309 whole entry): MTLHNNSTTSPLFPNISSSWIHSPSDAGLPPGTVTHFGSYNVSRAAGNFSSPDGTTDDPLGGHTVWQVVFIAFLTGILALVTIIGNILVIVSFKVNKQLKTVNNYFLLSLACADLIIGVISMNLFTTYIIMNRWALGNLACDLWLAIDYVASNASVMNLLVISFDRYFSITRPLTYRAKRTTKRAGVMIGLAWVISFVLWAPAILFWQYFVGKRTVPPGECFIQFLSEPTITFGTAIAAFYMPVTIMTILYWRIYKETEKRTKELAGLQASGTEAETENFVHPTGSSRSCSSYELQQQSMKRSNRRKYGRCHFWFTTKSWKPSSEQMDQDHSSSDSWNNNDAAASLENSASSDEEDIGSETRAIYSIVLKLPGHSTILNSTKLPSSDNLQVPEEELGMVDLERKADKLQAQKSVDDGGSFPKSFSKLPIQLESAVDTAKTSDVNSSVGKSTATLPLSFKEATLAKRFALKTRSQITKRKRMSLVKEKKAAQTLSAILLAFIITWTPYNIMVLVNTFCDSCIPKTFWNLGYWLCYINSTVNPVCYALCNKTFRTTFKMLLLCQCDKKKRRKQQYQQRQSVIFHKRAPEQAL

Consider `Cc1noc(N2C3CCC2CC(N2CCC(C(=O)NC4(C)CCC4)CC2)C3)n1` (single isomer, unassigned) [6-5 Isomer 2], for which the EC50 is over 20000 nM in test [1] (setting [5]), 195 nM in test [2], over 20000 nM in test [3] (setting [6]) and 148 nM in test [4] (setting [7]). Moreover, the Emax turned out to be 11% in test [1] (read-out: % Emax cf. ACh (M3)), 79% in test [2], 31% in test [3] (read-out: % Emax cf. ACh (M2)) and 100% in test [4].
For the compound `Cc1noc(N2CC3CCC2CC3N2CCC(n3cccn3)CC2)n1` (single isomer, unassigned) [7-1 Isomer 1], the EC50 in test [1] (setting [5]) was over 20000 nM; in test [2] it was 151 nM; in test [3] (setting [6]), over 20000 nM; in test [4] (setting [7]), over 20000 nM. Further, the Emax stood at 7% in test [1] (setting [8]), 85% in test [2], 11% in test [3] (setting [9]) and 18% in test [4].
As to `Cc1noc(N2CC3CCC2CC3N2CCC(n3cccn3)CC2)n1` (single isomer, unassigned) [7-1 Isomer 2], in test [1] (CHO cells stably expressing human M3, Emax relative to ACh), the “% Emax cf. ACh (M3)” value is “(6) %”. The “pEC50 M3” value in test [1] (CHO cells stably expressing human M3, agonist 5 min, 37° C.) was under 4.70. Moreover, in test [2], the “% Emax cf. ACh (M4)” value was “(99) %” and the EC50 was 85.1 nM. For the same compound, the “% Emax cf. ACh (M2)” value in test [3] (CHO cells stably expressing human M2, Emax relative to ACh) was “(15) %”. Also, the “pEC50 M2” value in test [3] (CHO cells stably expressing human M2, agonist 5 min, 37° C.) was under 4.70. Further, in test [4] (setting [10]), the “% Emax cf. ACh (M1)” value is given as “(33) %”. For the same compound, in test [4] (setting [7]), the EC50 is 2290 nM.
Take `Cc1noc(N2C3CCCC2CC(N2CCC4(CC2)CNC(=O)O4)C3)n1` (single isomer, unassigned) [8-3 Isomer 1]: the EC50 was over 20000 nM in test [1] (setting [5]), over 20000 nM in test [2], over 20000 nM in test [3] (setting [6]) and 295 nM in test [4] (setting [7]). The Emax in test [1] (read-out: % Emax cf. ACh (M3)) was determined as 1%; in test [2], 67%; in test [3] (read-out: % Emax cf. ACh (M2)) it was 4%; in test [4], 39%.
As for `Cc1noc(N2C3COCC2CC(N2CCC(n4cccn4)CC2)C3)n1` (single isomer, unassigned) [9-1 Isomer 1], the EC50 in test [1] (setting [5]) is over 20000 nM; in test [2], 105 nM; in test [3] (setting [6]), over 20000 nM; in test [4] (setting [7]) it was over 20000 nM. Moreover, the maximum response (Emax) in test [1] (read-out: % Emax cf. ACh (M3)) worked out at 1%; in test [2], 77%; in test [3] (read-out: % Emax cf. ACh (M2)), 21%; in test [4] it was 15%.
In the case of `CCN(CC)C(=O)[C@H]1[C@@H]2CN(C3CC4COCC(C3)N4c3nc(C)no3)C[C@@H]21` (single isomer, unassigned) [9-2 Isomer 2], the EC50 in test [1] (setting [5]) was 6310 nM; in test [2] it was 741 nM; in test [3] (setting [6]) it was over 20000 nM; in test [4] (setting [7]) it was 219 nM. For the same compound, the Emax came out at 42% in test [1] (read-out: % Emax cf. ACh (M3)), 74% in test [2], 27% in test [3] (read-out: % Emax cf. ACh (M2)) and 109% in test [4].
As for `Cc1noc(N2CCCC(N3CCC4(CC3)CNC(=O)C4)CC2)n1` (single isomer, unassigned) [10-2 Isomer 1], the EC50 in test [1] (setting [5]) was over 20000 nM; in test [2], over 20000 nM; in test [3] (setting [6]) it was over 20000 nM; in test [4] (setting [7]), 93.3 nM. Also, the Emax in test [1] (setting [8]) is 5%; in test [2] it was 10%; in test [3] (setting [9]), 3%; in test [4] it was 66%.
For the compound `Cc1noc(N2CCCC(N3CCC4(CC3)C(=O)Nc3ccccc34)CC2)n1` (single isomer, unassigned) [10-6 Isomer 1], the EC50 in test [1] was over 20000 nM; in test [2] it was 77.6 nM; in test [3], over 20000 nM; in test [4] (setting [11]) it was 661 nM. The Emax is 4% in test [1] (read-out: % Emax cf. ACh (M3)), 77% in test [2], 60% in test [3] (read-out: % Emax cf. ACh (M2)) and 76% in test [4].
For `Cc1noc(N2CCCC(N3CCC(N4C[C@H](F)C[C@@H]4CO)CC3)CC2)n1` (single isomer, unassigned) [10-7 Isomer 1], the EC50 in test [1] (setting [5]) is over 20000 nM; in test [2], 105 nM; in test [3] (setting [6]), over 20000 nM; in test [4] (setting [7]), 3720 nM. For the same compound, the values for the Emax in test [1] (setting [8]), in test [2] and in test [3] (setting [9]) were 2%, 89% and 15%, respectively. For the same compound, in test [4] (setting [10]), the “% Emax cf. ACh (M1)” value is on record as “(44) %”.
Turning to `Cc1noc(N2CC3CC(N4CCC5(CC4)CNC(=O)C5)CC2C3)n1` (single isomer, unassigned) [11-2 Isomer 2], the EC50 in test [1] (setting [5]) was over 20000 nM; in test [2], over 20000 nM; in test [3] (setting [6]), over 20000 nM; in test [4] (setting [7]) it was 9.55 nM. The Emax turned out to be 5% in test [1] (setting [8]), 15% in test [2], 8% in test [3] (setting [9]) and 67% in test [4].
Turning to `Cc1noc(N2CC3CC(N4CCC5(CC4)CNC(=O)O5)CC2C3)n1` (single isomer, unassigned) [11-3 Isomer 2], the EC50 is over 20000 nM in test [1] (setting [5]), over 20000 nM in test [2], over 20000 nM in test [3] (setting [6]) and 70.8 nM in test [4] (setting [7]). Besides, the Emax in test [1] (setting [8]) worked out at 22%; in test [2] it was 11%; in test [3] (setting [9]), 21%; in test [4] it was 65%.
`Cc1noc(N2CC3CCC2CC3N2CCC3(CC2)CNC(=O)C3)n1` (single isomer, unassigned) [12-1 Isomer 2]: the EC50 was over 20000 nM in test [1] (setting [5]), 117 nM in test [2], over 20000 nM in test [3] (setting [6]) and 32.4 nM in test [4] (setting [7]). For the same compound, the values for the maximum response (Emax) in test [1] (setting [8]) and in test [3] (setting [9]) were 2% and 6%, respectively. For the same compound, in test [2], the “% Emax cf. ACh (M4)” value is given as “(30) %”. In addition, in test [4] (setting [10]), the “% Emax cf. ACh (M1)” value is “(106) %”.
In the case of `Cc1noc(N2CC3CCC2CC3N2CCC3(CC2)CNC(=O)O3)n1` (single isomer, unassigned) [12-2 Isomer 2], the EC50 in test [1] (setting [5]) was over 20000 nM; in test [2], over 20000 nM; in test [3] (setting [6]), over 20000 nM; in test [4] (setting [7]) it was 398 nM. In addition, the Emax in test [1] (setting [8]) was 1%; in test [2] it was 18%; in test [3] (setting [9]) it was 14%; in test [4], 80%.
For `O=C1CC2(CCN(C3CC4CCC(C3)N4c3nc(C(F)(F)F)no3)CC2)CN1` (single isomer, unassigned) [12-3 Isomer 1], the EC50 in test [1] was over 20000 nM; in test [2] it was over 20000 nM; in test [3] it was over 20000 nM; in test [4] (setting [11]) it was 31.6 nM. The Emax turned out to be 31% in test [1] (read-out: % Emax cf. ACh (M3)), 14% in test [2], 19% in test [3] (read-out: % Emax cf. ACh (M2)) and 67% in test [4].
